Experimental data as given in PubChem BioAssay (NCI).
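Each compound was tested at five concentrations against cells in 96-well plates for 48 hours. TGI denotes the concentration required for complete inhibition of growth.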

Tests used:
Experiment in all cases: NCI anticancer screen, dose series, 48 h
[1] = test system: LOX IMVI melanoma
[2] = test system: SK-MEL-28 melanoma
[3] = test system: SNB-75 CNS
[4] = test system: A498 renal
[5] = test system: NCI/ADR-RES ovarian
[6] = test system: OVCAR-3 ovarian
[7] = test system: SN12C renal
[8] = test system: KM20L2 colon
[9] = test system: LXFL 529 NSCLC
[10] = test system: MCF7 breast
[11] = test system: SNB-19 CNS
[12] = test system: HOP-62 NSCLC
[13] = test system: OVCAR-5 ovarian
[14] = test system: NCI-H226 lung
[15] = test system: SW-620 colon
[16] = test system: NCI-H522 lung
[17] = test system: CCRF-CEM leukemia
[18] = test system: SF-268 CNS
[19] = test system: DMS 114 small cell lung
[20] = test system: K-562 leukemia
[21] = test system: OVCAR-8 ovarian
[22] = test system: SK-MEL-5 melanoma
[23] = test system: XF 498 CNS
[24] = test system: MDA-MB-231 breast
[25] = test system: IGROV1 ovarian
[26] = test system: CAKI-1 renal
[27] = test system: MOLT-4 leukemia
[28] = test system: UACC-62 melanoma
[29] = test system: RPMI-8226 leukemia
[30] = test system: SK-OV-3 ovarian
[31] = test system: RXF 393 renal
[32] = test system: 786-0 renal
[33] = test system: SF-295 CNS
[34] = test system: TK-10 renal
[35] = test system: A549 NSCLC
[36] = test system: M14 melanoma
[37] = test system: HT29 colon
[38] = test system: KM12 colon
[39] = test system: SNB-78 CNS
[40] = test system: MALME-3M melanoma
[41] = test system: HL-60(TB) leukemia
[42] = test system: DLD-1 colon
[43] = test system: UACC-257 melanoma
[44] = test system: UO-31 renal
[45] = test system: HS 578T breast
[46] = test system: MDA-N
[47] = test system: NCI-H460 lung
[48] = test system: OVCAR-4 ovarian
[49] = test system: MDA-MB-435
[50] = test system: M19-MEL melanoma
[51] = test system: SR leukemia
[52] = test system: EKVX NSCLC
[53] = test system: SK-MEL-2 melanoma
[54] = test system: SF-539 CNS
[55] = test system: BT-549 breast
[56] = test system: DMS 273 small cell lung
[57] = test system: DU-145 prostate
[58] = test system: HCT-15 colon
[59] = test system: HCT-116 colon
[60] = test system: HOP-18 NSCLC
[61] = test system: COLO 205 colon
[62] = test system: NCI-H23 lung
[63] = test system: U251 CNS
[64] = test system: PC-3 prostate
[65] = test system: ACHN renal
[66] = test system: T-47D breast
[67] = test system: HOP-92 NSCLC
[68] = test system: HCC-2998 colon

## CS(=O)(=O)OCCN(CCOS(C)(=O)=O)c1ccc(C=O)cc1
[1]
  TGI: 21.1 µM
[2]
  TGI: 52.6 µM
[3]
  TGI: 13.1 µM
[4]
  TGI: 4.43 µM
[5]
  TGI: > 80.8 µM
[6]
  TGI: 28.5 µM
[7]
  TGI: 41.3 µM
[8]
  TGI: 17.8 µM
[9]
  TGI: 47.4 µM
[10]
  TGI: > 75.9 µM
[11]
  TGI: 65.5 µM
[12]
  TGI: 24 µM
[13]
  TGI: 14.4 µM
[14]
  TGI: 13.4 µM
[15]
  TGI: 68.8 µM
[16]
  TGI: 0.553 µM
[17]
  TGI: 46.2 µM
[18]
  TGI: 43.5 µM
[19]
  TGI: 28.2 µM
[20]
  TGI: > 100 µM
[21]
  TGI: 32.4 µM
[22]
  TGI: 29.1 µM
[23]
  TGI: 5.85 µM
[24]
  TGI: 67.6 µM
[25]
  TGI: 43.3 µM
[26]
  TGI: 2.08 µM
[27]
  TGI: 4.84 µM
[28]
  TGI: 14.5 µM
[29]
  TGI: 75.4 µM
[30]
  TGI: 7.18 µM
[31]
  TGI: 1.72 µM
[32]
  TGI: 7.86 µM
[33]
  TGI: 25.9 µM
[34]
  TGI: 17 µM
[35]
  TGI: 35.8 µM
[36]
  TGI: 30.4 µM
[37]
  TGI: 57.9 µM
[38]
  TGI: 29.5 µM
[39]
  TGI: > 100 µM
[40]
  TGI: 26.7 µM
[41]
  TGI: 35.4 µM
[42]
  TGI: > 84 µM
[43]
  TGI: 39.2 µM
[44]
  TGI: 3.09 µM
[45]
  TGI: 58 µM
[46]
  TGI: 27.2 µM
[47]
  TGI: 3.36 µM
[48]
  TGI: 37.6 µM
[49]
  TGI: 24.6 µM
[50]
  TGI: 30.2 µM
[51]
  TGI: 14.7 µM
[52]
  TGI: 25.4 µM
[53]
  TGI: 42.8 µM
[54]
  TGI: 17.4 µM
[55]
  TGI: > 69.8 µM
[56]
  TGI: 13.5 µM
[57]
  TGI: 7.17 µM
[58]
  TGI: 47.4 µM
[59]
  TGI: > 100 µM
[60]
  TGI: 48.8 µM
[61]
  TGI: 9.58 µM
[62]
  TGI: 12.6 µM
[63]
  TGI: 45.7 µM
[64]
  TGI: 86 µM
[65]
  TGI: 2.69 µM
[66]
  TGI: > 71.6 µM
[67]
  TGI: 44.5 µM
[68]
  TGI: 8.36 µM

## COC(=O)C1C(OCc2ccccc2)C2CCC1(OC)C=C2C (stereo not drawn)
[1]
  TGI: > 100 µM
[2]
  TGI: > 100 µM
[3]
  TGI: > 100 µM
[4]
  TGI: > 100 µM
[6]
  TGI: > 100 µM
[7]
  TGI: > 100 µM
[8]
  TGI: > 100 µM
[9]
  TGI: > 100 µM
[11]
  TGI: > 100 µM
[12]
  TGI: > 100 µM
[13]
  TGI: > 100 µM
[14]
  TGI: > 100 µM
[15]
  TGI: > 100 µM
[16]
  TGI: > 100 µM
[17]
  TGI: 65 µM
[18]
  TGI: > 100 µM
[19]
  TGI: > 100 µM
[20]
  TGI: > 100 µM
[21]
  TGI: > 100 µM
[22]
  TGI: > 100 µM
[23]
  TGI: > 86.7 µM
[25]
  TGI: > 100 µM
[26]
  TGI: > 100 µM
[27]
  TGI: 80.6 µM
[28]
  TGI: > 100 µM
[29]
  TGI: > 100 µM
[30]
  TGI: > 100 µM
[31]
  TGI: > 100 µM
[32]
  TGI: > 100 µM
[33]
  TGI: > 100 µM
[34]
  TGI: > 100 µM
[35]
  TGI: > 100 µM
[36]
  TGI: > 100 µM
[37]
  TGI: > 100 µM
[38]
  TGI: > 100 µM
[39]
  TGI: > 100 µM
[40]
  TGI: > 100 µM
[41]
  TGI: 29.8 µM
[42]
  TGI: > 100 µM
[43]
  TGI: > 100 µM
[44]
  TGI: > 100 µM
[47]
  TGI: > 100 µM
[48]
  TGI: > 100 µM
[50]
  TGI: > 100 µM
[51]
  TGI: 66.6 µM
[52]
  TGI: > 100 µM
[53]
  TGI: > 93.7 µM
[54]
  TGI: > 100 µM
[56]
  TGI: > 83.9 µM
[58]
  TGI: > 100 µM
[59]
  TGI: > 100 µM
[60]
  TGI: > 100 µM
[61]
  TGI: > 100 µM
[62]
  TGI: > 100 µM
[63]
  TGI: > 100 µM
[65]
  TGI: > 100 µM
[67]
  TGI: > 100 µM
[68]
  TGI: > 100 µM

## O=c1c2ccccc2[nH]c2cc(O)cc(O)c12
[1]
  TGI: > 100 µM
[2]
  TGI: > 100 µM
[3]
  TGI: > 100 µM
[6]
  TGI: > 100 µM
[7]
  TGI: > 100 µM
[9]
  TGI: > 100 µM
[11]
  TGI: > 100 µM
[14]
  TGI: > 100 µM
[16]
  TGI: 86.3 µM
[17]
  TGI: > 100 µM
[18]
  TGI: > 100 µM
[20]
  TGI: > 100 µM
[21]
  TGI: > 100 µM
[22]
  TGI: 85 µM
[23]
  TGI: > 100 µM
[25]
  TGI: > 100 µM
[27]
  TGI: > 100 µM
[28]
  TGI: > 100 µM
[30]
  TGI: > 100 µM
[31]
  TGI: > 100 µM
[33]
  TGI: > 100 µM
[34]
  TGI: > 100 µM
[35]
  TGI: > 100 µM
[36]
  TGI: > 100 µM
[37]
  TGI: > 100 µM
[38]
  TGI: > 100 µM
[39]
  TGI: > 100 µM
[40]
  TGI: > 100 µM
[41]
  TGI: > 100 µM
[43]
  TGI: > 100 µM
[44]
  TGI: > 100 µM
[47]
  TGI: > 100 µM
[48]
  TGI: > 100 µM
[50]
  TGI: > 100 µM
[53]
  TGI: > 100 µM
[54]
  TGI: > 100 µM
[56]
  TGI: > 100 µM
[58]
  TGI: > 100 µM
[59]
  TGI: > 100 µM
[60]
  TGI: > 100 µM
[62]
  TGI: > 100 µM
[63]
  TGI: > 100 µM
[65]
  TGI: > 100 µM
[68]
  TGI: > 100 µM

## Cc1cccc(C)c1NC(=O)CCc1n[nH]c(=S)o1
[2]
  TGI: > 100 µM
[3]
  TGI: > 100 µM
[4]
  TGI: > 100 µM
[6]
  TGI: > 100 µM
[7]
  TGI: > 100 µM
[8]
  TGI: > 100 µM
[9]
  TGI: > 100 µM
[11]
  TGI: > 100 µM
[12]
  TGI: > 100 µM
[13]
  TGI: > 100 µM
[14]
  TGI: > 100 µM
[15]
  TGI: 36.2 µM
[16]
  TGI: > 100 µM
[17]
  TGI: > 100 µM
[18]
  TGI: > 100 µM
[19]
  TGI: > 100 µM
[20]
  TGI: > 100 µM
[21]
  TGI: > 100 µM
[22]
  TGI: > 100 µM
[25]
  TGI: > 100 µM
[26]
  TGI: > 100 µM
[27]
  TGI: > 100 µM
[28]
  TGI: > 100 µM
[29]
  TGI: 56.7 µM
[30]
  TGI: > 100 µM
[32]
  TGI: > 100 µM
[33]
  TGI: > 100 µM
[34]
  TGI: > 100 µM
[35]
  TGI: > 100 µM
[36]
  TGI: > 100 µM
[37]
  TGI: > 100 µM
[38]
  TGI: > 100 µM
[39]
  TGI: > 100 µM
[40]
  TGI: > 100 µM
[41]
  TGI: > 100 µM
[42]
  TGI: > 100 µM
[43]
  TGI: > 100 µM
[44]
  TGI: > 100 µM
[47]
  TGI: > 100 µM
[48]
  TGI: > 100 µM
[50]
  TGI: > 100 µM
[52]
  TGI: > 100 µM
[54]
  TGI: > 100 µM
[56]
  TGI: > 100 µM
[58]
  TGI: > 100 µM
[59]
  TGI: 36.7 µM
[60]
  TGI: > 100 µM
[61]
  TGI: 85.1 µM
[62]
  TGI: > 100 µM
[63]
  TGI: > 100 µM
[65]
  TGI: > 100 µM
[67]
  TGI: > 100 µM
[68]
  TGI: > 100 µM
